Where two headings read alike, the source gives them in different places.
Key:
[1] = tested on: actin filaments in Hela cells; assay: Imaging of actin filaments in Hela cells (actin-RFP, immunofluorescence); type: cell-based, human; details: high concentration (IC80)
Method: (§1) Then, cells were fixed in 4% paraformaldehyde at 4 °C for 20 min and permeabilized by 0.3% (v/v) Triton X-100 for 10 min. Nonspecific binding sites on the coverslips were blocked by incubating them with 5% FBS for 1 h. To stain the microtubules, cells were firstly incubated with 1:100 mouse anti-α-tubulin monoclonal IgG for 1 h and then with 1:200 goat anti-mouse […] for 1 h. Cells were then incubated with […] Atto 390 phalloidin for 45 min to stain the actin filaments and 20 μg/mL propidium iodide for 30 min to stain the cell nucleus/chromosomes. After washing steps, the coverslips were mounted by mowiol. Microtubules, actin filaments and cell nucleus/chromosomes were observed and analyzed using the Keyence BZ-9000 microscope as described before.
Hela cells (2 × 10^4) were seeded in 24-well plates and mixed with CellLight® Actin-RFP BacMam 2.0, which is a fusion construct of human actin and TagRFP, providing an accurate and specific targeting to cellular actin filaments. After 16 h of incubation, 200 μL of different concentrations of alkaloids (IC80, IC50) were added into each well, and the cells were analyzed as described above (Section 4.4).

[2] = target: T1, tubulin plus microtubule-associated proteins (MAPs) from porcine brains (Sus scrofa, UniProt P02550+P02554); assay: In vitro tubulin polymerization assay (light scattering at 360 nm); type: biochemical; details: for IC50: 5.6 mg/mL tubulin-MAPs, 37 °C, 40 min, read-out: IC50 inhibition of tubulin polymerization in vitro; for effect on tubulin polymerization in vitro: tubulin-MAPs
T1 construct: prepared from porcine brains (freshly obtained from a local slaughter house) by two cycles of polymerization and depolymerization; from tissue; host or cells: porcine brain
T1 sequence (P02550 whole entry): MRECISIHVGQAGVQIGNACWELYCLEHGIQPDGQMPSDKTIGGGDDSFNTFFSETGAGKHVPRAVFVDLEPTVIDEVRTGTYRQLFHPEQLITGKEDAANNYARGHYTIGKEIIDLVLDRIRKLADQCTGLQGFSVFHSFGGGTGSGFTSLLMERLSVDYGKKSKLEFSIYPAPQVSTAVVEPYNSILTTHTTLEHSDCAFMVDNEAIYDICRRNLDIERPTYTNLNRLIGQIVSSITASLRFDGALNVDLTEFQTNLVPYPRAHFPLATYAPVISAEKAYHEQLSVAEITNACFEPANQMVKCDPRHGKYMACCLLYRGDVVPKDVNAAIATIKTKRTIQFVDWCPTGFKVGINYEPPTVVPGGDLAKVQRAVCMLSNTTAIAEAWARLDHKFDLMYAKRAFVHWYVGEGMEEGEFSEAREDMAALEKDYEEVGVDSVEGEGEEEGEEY
T1 sequence (P02554 whole entry): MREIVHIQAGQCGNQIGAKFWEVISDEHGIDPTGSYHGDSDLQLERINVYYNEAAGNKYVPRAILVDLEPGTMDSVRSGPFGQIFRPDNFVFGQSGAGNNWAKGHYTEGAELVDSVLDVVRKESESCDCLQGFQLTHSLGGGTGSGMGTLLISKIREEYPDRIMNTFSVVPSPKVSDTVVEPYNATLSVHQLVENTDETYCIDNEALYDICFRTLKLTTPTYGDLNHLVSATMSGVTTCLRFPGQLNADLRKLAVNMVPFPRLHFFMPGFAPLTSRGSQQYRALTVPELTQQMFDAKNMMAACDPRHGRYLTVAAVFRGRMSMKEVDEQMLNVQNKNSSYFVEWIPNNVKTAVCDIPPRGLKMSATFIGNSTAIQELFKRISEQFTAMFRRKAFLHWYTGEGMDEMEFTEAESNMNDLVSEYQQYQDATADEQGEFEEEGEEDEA
Method: Tubulin plus microtubule-associated proteins (MAPs) were prepared from porcine brains (freshly obtained from a local slaughter house) by two cycles of polymerization and depolymerization according to a standard protocol. […] The rate and extent of the polymerization reaction were monitored by light scattering at 360 nm using Tecan infinite M200 Pro.
(§2) All experiments were performed at least three times. Data are presented as the mean ± standard deviation. Statistical comparison between controls and different treatments were performed by an unpaired Student’s t-test. Significance was considered at p < 0.05.

Hela cells [3] = assay: Cell cycle analysis by flow cytometry (propidium iodide); type: cell-based, human
Method: Cell cycle analysis was carried out as established in our laboratory. Hela cells (5 × 10^5) were seeded in 6-well plates and treated with different concentrations of alkaloids for 24 h. Cells were then collected, centrifuged and fixed in 70% ice-cold ethanol for at least 8 h. After the washing steps, cells were treated with 0.2 mg/mL RNase A for 30 min at 37 °C and then stained with 0.1 mg/mL propidium iodide. Samples were analyzed using a FACScan flow cytometer (Becton Dickinson, Heidelberg, Germany). Data were analyzed using Cell Quest™ Pro software (Becton Dickinson) and Microsoft Excel 2013 (Microsoft Corporation, Redmond, WA, USA).

U2OS cells = assay: MTT cytotoxicity assay, U2OS; type: cell-based, human; details: 48 h, mean ± SD
Method: (§3) The anti-proliferative effects of alkaloids were assessed using the MTT assay, as previously described. In brief, 1 × 10^4 cells were seeded in 96-well-plates and incubated with serial dilutions of alkaloids for 48 h (Hela, U2OS) and 72 h (MCF-7). MTT solution was then added and incubated for 2 h. After the addition of DMSO, the plate was read at 570 nm using the Tecan infinite M200 Pro (Tecan, Crailsheim, Germany).
as §2

MCF-7 cells = assay: MTT cytotoxicity assay, MCF-7; type: cell-based, human; details: mean ± SD
Method: as §3, §2

[4] = tested on: Hela, MCF-7 and U2OS cells; assay: MTT cytotoxicity, summary over three cell lines; type: cell-based; details: Homo sapiens, MCF-7, U2OS
Method: as §3, §2

Hela cells [5] = assay: MTT cytotoxicity assay, Hela; type: cell-based, human; details: 48 h, mean ± SD
Method: as §3, §2

[6] = tested on: microtubules in U2OS cells; assay: Imaging of microtubule network in α-tubulin-GFP U2OS cells; type: cell-based, human
Method: α-Tubulin-GFP U2OS cells (1 × 10^5) were seeded in 24-well plates and grown for 24 h. […] The images were analyzed using BZ-II Analyzer software (version 2.1, Keyence, Neu-Isenburg, Germany).

[7] = tested on: microtubules in Hela cells; assay: Immunofluorescence staining of microtubules and spindles in Hela cells; type: cell-based, human; details: for effect on mitotic spindles: Hela metaphase cells, IC50, 24 h; for effect on interphase cellular microtubules: Hela, immunofluorescence, IC80
Method: as §1

[8] = read-out: IC50 values, range over three cell lines
[9] = U2OS α-tubulin-GFP, IC80 and IC50, 2-48 h
[10] = read-out: IC50 values, range over all three cell lines

| SMILES | effect on actin filaments [1] | IC50 ([2]; mean ± SD) [µM] | effect on cell cycle (Hela cells [3]; 24 h) | IC50 (U2OS cells; Homo sapiens, U2OS) [µM] | IC50 (MCF-7 cells; Homo sapiens, MCF7, 72 h) [µM] | IC50 [4, 8] [nM] | IC50 (Hela cells [5]; Homo sapiens, HeLa) [µM] | effect on microtubule network [6, 9] | effect on mitotic spindles [7] | IC50 [2] [µM] | other results |
| --- | --- | --- | --- | --- | --- | --- | --- | --- | --- | --- | --- |
| COc1ccc2c(c[n+](C)c3c4cc5c(cc4ccc23)OCO5)c1OC [Chelerythrine, chelerythrine] | significant reduction of actin filament mass | 206 ± 4.2 | did not change the proportion of mitotic cells | 2.88 ± 0.76 | 7.63 ± 3.43 | 920 to 7630 | 3.85 ± 2.1 | displayed similar effects as sanguinarine | abnormal, but still bipolar spindles | – | effect on interphase cellular microtubules [7]: significantly reduced the mass of microtubules |
| CN1Cc2c(ccc3c2OCO3)[C@@H]2[C@H]1c1cc3c(cc1C[C@@H]2O)OCO3 [Chelidonine, chelidonine] | significant reduction of actin filament mass | 34.5 ± 9.47 | – | 3.86 ± 1.99 | 3.85 ± 0.1 | 920 to 7630 | 1.13 ± 0.37 | – | multipolar spindles with chromosome congression failure | – | G2/M population (Hela cells [3]; 2.5 μM, 24 h): 88.27% ± 0.99%; effect on microtubule network [6]: significantly decreased cellular microtubule mass |
| COc1cc2c(c(OC)c1OC)-c1ccc(OC)c(=O)cc1[C@@H](NC(C)=O)CC2 [Colchicine, colchicine] | No apparent changes of actin filaments | – | – | – | – | – | – | reduced the mass of the microtubule network | completely depolymerized spindle | – | G2/M population (Hela cells [3]; 0.1 μM, 24 h): 89.66% ± 2.04% |
| COC(=O)C[C@](O)(CCCC(C)(C)O)C(=O)O[C@@H]1C(OC)=C[C@]23CCCN2CCc2cc4c(cc2[C@H]13)OCO4 [Homoharringtonine, homoharringtonine] | No apparent changes of actin filaments | – | had no impact on the cell cycle | 0.003 ± 0.00167 | 0.00087 ± 0.00045 | – | 0.00903 ± 0.00038 | No obvious changes on the cellular microtubule network | did not affect mitotic spindles | > 1000 | effect on tubulin polymerization in vitro [2]: did not affect tubulin polymerization; IC50 [4, 10]: 0.87 to 9.03 nM |
| C/C1=C/C(=O)O[C@@H]2C[C@@H](CC[C@H](C)/C=C\CC1)O[C@@](O)([C@@H]1CSC(=O)N1)C2 [Latrunculin B, latrunculin B] | extensive depolymerization of the actin network | – | – | – | – | – | – | immediately changed the cell morphology | – | – | G2/M population (Hela cells [3]; 7 μM, 24 h): 80.05% ± 11.89%; IC50 (U2OS cells): 5.48 ± 0.68 µM; IC50 (MCF-7 cells; 72 h): 36.8 ± 2.25 µM; IC50 (Hela cells [5]): 7.13 ± 0.61 µM |
| COc1ccc2c(c1OC)C(=O)O[C@@H]2[C@H]1c2c(cc3c(c2OC)OCO3)CCN1C [Noscapine, noscapine] | No apparent changes of actin filaments | – | – | 60.9 ± 12.2 | 35.2 ± 8.18 | – | 16.8 ± 9.79 | remarkably depolymerized the microtubule network and reduced its mass | multipolar spindles with chromosome congression failure | > 1000 | G2/M population (Hela cells [3]; 80 μM, 24 h): 73.42% ± 8.31% |
| CC(=O)O[C@H]1C(=O)[C@@]2(C)[C@H]([C@H](OC(=O)c3ccccc3)[C@]3(O)C[C@H](OC(=O)[C@H](O)[C@@H](NC(=O)c4ccccc4)c4ccccc4)C(C)=C1C3(C)C)[C@]1(OC(C)=O)CO[C@@H]1C[C@@H]2O [Paclitaxel, paclitaxel] | No apparent changes of actin filaments | 38.2 ± 3.33 | – | 0.23 ± 0.1 | 1.05 ± 0.43 | – | 8e-05 ± 0.0001 | promoted the polymerization of microtubules | aberrant, but still bipolar spindles | – | G2/M population (Hela cells [3]; 0.1 μM, 24 h): 80.37% ± 5.36% |
| CN1CCc2cc3c(cc2C(=O)Cc2ccc4c(c2C1)OCO4)OCO3 [Protopine, protopine] | No apparent changes of actin filaments | – | – | 62.4 ± 9.9 | 67.3 ± 9.06 | – | 27.5 ± 11.8 | notably enhanced the assembly of the microtubule network | thickened spindle arrays | > 1000 | effect on tubulin polymerization in vitro [2]: did not affect tubulin polymerization; G2/M population (Hela cells [3]; 250 μM, 24 h): 54.35% ± 11.26%; G2/M population (Hela cells [3]; 250.9 μM): 54.35% ± 11.26% |
| C[n+]1cc2c3c(ccc2c2ccc4cc5c(cc4c21)OCO5)OCO3 [Sanguinarine, sanguinarine] | significant reduction of actin filament mass | 48.4 ± 3.73 | did not change the proportion of mitotic cells | 0.92 ± 0.53 | 1.24 ± 0.21 | 920 to 7630 | 1.03 ± 0.04 | – | had no impact on mitotic spindles | – | effect on microtubule network [6]: disrupted microtubule distribution and altered their morphology; effect on interphase cellular microtubules [7]: significantly reduced the mass of microtubules |
| CC[C@]1(O)C[C@@H]2CN(CCc3c([nH]c4ccccc34)[C@@](C(=O)OC)(c3cc4c(cc3OC)N(C)[C@H]3[C@@](O)(C(=O)OC)[C@H](OC(C)=O)[C@]5(CC)C=CCN6CC[C@]43[C@@H]65)C2)C1 [Vinblastine, vinblastine] | No apparent changes of actin filaments | 1.42 ± 0.05 | – | 0.0001 ± 5e-05 | 7e-05 ± 5e-05 | – | 2e-05 ± 1e-05 | microtubules were extensively depolymerized and tubulin paracrystals were formed | depolymerized bipolar spindles | – | G2/M population (Hela cells [3]; 10 nM, 24 h): 78.04% ± 14.78%; IC50 [4, 10]: 0.02 to 0.1 nM |
